pKi: −log10 of the molar value. The source made the active and inactive calls. No cut-off for these calls is given here.

For orientation: pKi means the negative decadic logarithm of the Ki, by convention in mol/L. Lower therefore signals a high Ki.

The first assay concerns the target Glutamate NMDA receptor. The experiment in a line: Displacement of L-[3H]glutamate from N-methyl-D-aspartate glutamate receptor in rat brain synaptic membranes. It counts as cell membranes, Membrane.
Conditions: not given
On to `N[C@H](CCCP(=O)(O)O)C(=O)O`, for which the negative logarithm of the Ki (pKi) was 5.42.

A further assay has as its target Glutamate NMDA receptor (Rattus norvegicus) (UniProt P35439+Q00959+Q00960+Q00961+Q62645+Q8VHN2+Q9R1M7). The experiment in a line: Displacement of L-[3H]glutamate from N-methyl-D-aspartate glutamate receptor in rat brain synaptic membranes; No displacement up to 100 uM. Particulars: Membrane. It counts as cell membranes.
With `NCC(=O)N1CCC[C@H]1C(=O)N[C@H](CCCC(=O)O)C(=O)O`, the result was inactive.
Same read-out and setting: as for `NCC(=O)N1CCC[C@@H]1C(=O)N[C@H](CCC(=O)O)C(=O)O`, the entry is “inactive”.
In the case of `CC1(C)SC[C@H](C(=O)N[C@@H](CCC(=O)O)C(=O)O)N1C(=O)CN`, the outcome was inactive.
On to `NCC(=O)N1CSC[C@@H]1C(=O)N[C@@H](CCC(=O)O)C(=O)O`, for which the result was inactive.
For the compound `NCC(=O)N1CCC[C@@H]1C(=O)N[C@@H](CCC(=O)O)C(=O)O`, the result was inactive.
With `NCC(=O)N1CCC[C@H]1C(=O)N[C@H](CC(=O)O)C(=O)O`, the outcome was inactive.
Still for that read-out and setting: the same measure for `NCC(=O)N1CCC[C@H]1C(=O)N[C@H](CCC(=O)O)C(=O)O`: “inactive”; for `NCC(=O)N1CCC[C@H]1C(=O)N[C@@H](CCCC(=O)O)C(=O)O`: “inactive”.
As to `NCC(=O)N1CCC[C@H]1C(=O)N[C@@H](CC(=O)O)C(=O)O`, the result was inactive.

For the origin of these results see ChEMBL document CHEMBL1144378, “Analogues of the neuroprotective tripeptide Gly-Pro-Glu (GPE): synthesis and structure-activity relationships” (Bioorg Med Chem Lett, 2005).
